Data taken from US8658638B2, “Mineralocorticoid receptor antagonist and methods of use” (priority 2009, dated 2014).

How the values were obtained:
[1] = target: T1, human mineralocorticoid receptor (MR) (Homo sapiens, UniProt P08235); assay: Nuclear hormone receptor panel screen (luciferase reporter, HEK293), MR; assay type: cell-based
T1 construct: expressed in transfected cells; host or cells: HEK293
T1 sequence (P08235 1-984): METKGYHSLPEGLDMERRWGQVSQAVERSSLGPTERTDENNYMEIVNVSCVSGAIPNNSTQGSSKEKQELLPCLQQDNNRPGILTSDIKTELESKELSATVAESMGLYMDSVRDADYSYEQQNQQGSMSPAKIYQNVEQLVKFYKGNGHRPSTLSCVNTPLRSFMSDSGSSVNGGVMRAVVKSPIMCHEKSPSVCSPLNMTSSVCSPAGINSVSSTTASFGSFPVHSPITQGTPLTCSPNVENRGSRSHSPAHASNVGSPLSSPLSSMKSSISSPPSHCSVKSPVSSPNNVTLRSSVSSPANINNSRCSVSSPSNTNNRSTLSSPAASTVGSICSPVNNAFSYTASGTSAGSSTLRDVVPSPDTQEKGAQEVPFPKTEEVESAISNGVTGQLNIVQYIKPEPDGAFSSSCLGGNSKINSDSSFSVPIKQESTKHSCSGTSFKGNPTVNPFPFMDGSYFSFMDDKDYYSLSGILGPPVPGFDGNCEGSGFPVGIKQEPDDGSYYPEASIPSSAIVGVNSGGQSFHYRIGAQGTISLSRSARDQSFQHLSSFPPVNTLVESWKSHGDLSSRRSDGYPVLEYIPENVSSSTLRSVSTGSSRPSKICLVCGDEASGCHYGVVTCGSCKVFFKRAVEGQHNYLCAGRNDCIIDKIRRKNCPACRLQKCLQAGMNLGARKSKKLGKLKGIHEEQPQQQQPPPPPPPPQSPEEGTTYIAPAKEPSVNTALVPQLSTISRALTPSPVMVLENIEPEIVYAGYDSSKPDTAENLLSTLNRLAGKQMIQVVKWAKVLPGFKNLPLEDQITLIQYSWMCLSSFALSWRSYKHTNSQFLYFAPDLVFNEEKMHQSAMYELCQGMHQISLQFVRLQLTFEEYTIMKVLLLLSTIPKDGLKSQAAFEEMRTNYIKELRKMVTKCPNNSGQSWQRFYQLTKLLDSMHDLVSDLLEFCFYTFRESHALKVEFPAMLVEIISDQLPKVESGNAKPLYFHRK
Source text: Aldosterone exerts it physiological effects through interaction with the mineralocorticoid receptor. Following cytoplasmic binding of aldosterone to MR, the ligand receptor complex translocates to the cell nucleus where it binds to hormone response elements on DNA to initiate expression of target genes. […] The solvents, reagents, and ligands employed in the functional assay are readily available from commercial sources, or can be prepared by one of ordinary skill in the art.
Human embryonic kidney HEK293 cells are transfected with steroid hormone receptor and reporter gene plasmids using a suitable transfection reagent such as Fugene™. […] After 24 hours incubation with test compounds, cells are lysed and luciferase activity is determined using standard techniques.
Data are fitted to a four parameter-fit logistic curve to determine EC50 values. […] IC50 values are determined similarly using antagonist mode assay data. In the antagonist mode, percent inhibitions are determined by comparing test compound activity in the presence of low concentration of agonist (0.08 nM aldosterone for MR, 0.25 nM dexamethasone for GR, 0.66 nM of methyltrienolone for AR, and 0.08 nM of promegestone for PR) to the response produced by the same low concentration of agonist in the absence of test compound.

human MR = target: T2, human MR (Homo sapiens, UniProt P08235); assay: hMR competitive antagonist assay (Schild analysis); assay type: cell-based; details: Schild analysis versus aldosterone, HEK293 transfected with human MR
T2 construct: expressed in transfected cells; host or cells: HEK293
T2 sequence (P08235 1-984): T1 sequence (P08235 1-984)

[2] = system: adrenalectomized Sprague Dawley rats; assay: In vivo assay of electrolyte modulation; details: 30 mg/kg p.o., aldosterone 3 μg/kg s.c., urine collected 5 hours after dose, rat
Procedure: Male Sprague Dawley rats (240-280 g) are adrenalectomized then maintained on 5001 rodent chow and 1% NaCl drinking solution for 6 days after surgery. Animals are then fasted overnight and 1% saline drinking water is replaced with house water ad lib. The morning of the study, fasted animals are randomized to treatment on the basis of fasted body weight. Control animals (e.g. those that receive no aldosterone or test compound) are given 10 mL/kg of test compound vehicle comprising 0.5% CMC/0.25% polysorbate 80/2.7% NaCl by oral gavage, and 1 mL/kg of aldosterone vehicle (0.01% DMSO/water) by subcutaneous injection. Vehicle animals are given the same test compound vehicle by oral gavage and aldosterone 3 μg/kg, s.c. Test substances are suspended in the carboxy methylcellulose/NaCl vehicle. The test compound treatment groups receive test substance suspended in the carboxy methylcellulose/NaCl vehicle and aldosterone 3 μg/kg s.c. Immediately after dosing, animals are placed in metabolic racks with ad lib access to house water. Urine samples are collected 5 hours after dose administration and electrolyte excretion is assayed. Data are presented as log Na/K excretion ratio or % of Na/K ratio with respect to adrenalectomized vehicle treated animals. […]

EC50 ([1]; agonist mode): > 10000 nM | IC50 ([1]; antagonist mode, 0.08 nM aldosterone): ~21 nM | Kb (human MR): ~5.1 nM | increase of urinary Na/K excretion ratio compared to vehicle treated animals [2]: about 30%
Structure (SMILES): O=c1[nH]c2cc(/C=C3\c4ccccc4COc4cc(F)ccc43)ccc2n1[C@@H]1C[C@@H]2COCCN2C1 [Compound (I), 5-((E)-(3-fluorodibenzo[b,e]oxepin-11(6H)-ylidene)methyl)-1-((7R,8aR)-hexahydro-1H-pyrrolo[2,1-c][1,4]oxazin-7-yl)-1H-benzo[d]imidazol-2(3H)-one]
